Where two headings read alike, the source gives them in different places.

The assay addresses T1, human GPR68 (Homo sapiens, UniProt Q15743).
T1 construct: encoding full-length human GPR68 (uniprot ID: Q15743); expressed in transfected cells; host or cells: HEK293T
In words: GPR68 Biochemical Assay (Promega GloSensor cAMP assay, GPR68 antagonism). The format is cell-based. Particulars: 15 min. The procedure:
GPR68 antagonism was determined using the Promega GloSensor™ CAMP assay (F. I. Wang et al., Methods 2021, S1046-2023 (21) 00249-8). HEK293T cells (obtained from ECACC, Cat 12022001, Lot no. 17E044) were cultured in T175 flasks (Greiner, Cat 660175) in DMEM (Gibco, Cat 11995-065) supplemented with 10% Fetal Bovine Serum (Gibco Cat 16000-044), and 100 u/mL Pen-Strep (Gibco, Cat 15140) at 37° C. and 5% CO2. GPR68 expression was achieved by transient transfection with a mammalian expression plasmid encoding full-length human GPR68 (uniprot ID: Q15743) under control of a CMV promoter. The day before transfection, cell media was aspirated and HEK293T cells were incubated with accutase (Sigma, Cat A6964) for 3-4 minutes 37° C. and 5% CO2 before being manually detached with excess DMEM and trituration. Cell density was determined by automated cell counting (Countess, Invitrogen) and adjusted to 6×10^6 cells/20 mL and transferred to 15 cm dishes (Thermo Fisher, Cat 130183) for overnight incubation at 37° C. and 5% CO2. The next day separate mammalian expression plasmids encoding hGPR68 (4 μg) and Promega GloSensor (8 μg) were diluted to 1 mL in Opti-MEM (Thermo Fisher Scientific, Cat 31985070) and incubated with 30 μL of lipofectamine 3000 (also diluted to 1 mL in Opti-MEM) for 15 minutes at room temperature and subsequently added dropwise to the plated cells. Post transfection cells were then incubated at 37° C. and 5% CO2 for at least 16 hours before transfer to assay plates the following day. Transfer was conducted by washing cells with PBS and incubating with accutase for 3-4 minutes 37° C. and 5% CO2 before being manually detached with excess DMEM and mild trituration. The suspension was then centrifuged at 192 RCF for 4 minutes in a 50 mL centrifuge tube (Greiner, Cat 227261).
Supernatant was removed by aspiration and the cell pellet was resuspended in DMEM+1% dialysed FBS (Gibco, Cat 26400-044) and 100 u/mL Pen-Strep to a cell density of 500 cells/μL. Cells were plated into poly-L-Lysine coated 384-well white assay plates (Corning, Cat 3570) at a final volume of 40 µL and a density of 20,000 cells/well before overnight incubation at 37° C. and 5% CO2. The following day media was manually ejected from the 384-well assay plate and replaced with 10 μL GloSensor substrate (Promega, Cat E1291) prepared in pH 8.0 assay buffer (1×HBSS, 10 mM HEPES, 10 mM MOPS). Cells were incubated with this solution for 60 minutes at room temperature in the dark. Test compounds or an equivalent volume of DMSO (vehicle) were added to compounds plates to create a 9-point, half-log concentration series for each compound with a maximum final assay concentration of 50 μM and a consistent final DMSO concentration of 0.5%. Assay buffer with 0.1% BSA and 0.01% ascorbic acid was prepared at three pHs: pH 8.0, pH 5.5 and pH 4.5. pH 8.0 and 4.5 were added to the compound plate as maximum and minimum effect controls whilst pH 5.5 was added to all compound wells to stimulate GPR68 to a level corresponding to […] of maximal stimulation after addition to the cells already in pH 8.0 (assay acceptance criteria range 70-90%). DMSO/Compound and buffer was added to the plated cells containing the GloSensor substrate and incubated for 15 minutes at room temperature before being read on a microplate reader (BMG PHERAstar, optic module LUM Plus with Gain 3600). Data was exported and analysed in excel and Graphpad prism (version 9). Assay QC acceptance criteria required the maximum and minimum controls to return a Z′≥0.5, the EC80 to be 80%±10% of expected and the reference ligand pIC50 to be within one-half-log unit of its historical IC50. Percent inhibition was calculated using the mean EC80 (pH 5.5) and mean minimum effect control (pH 8.0). Data were plotted as percentage inhibition, average±SEM. IC50, Emax, Emin, Actual max, actual min, R^2 and fit confidence were calculated using Graphpad Prism's sigmoidal dose-response function.
For orientation: cAMP levels reflect the balance of adenylyl cyclase and phosphodiesterase activity.

Where [1] appears, read: HEK293T cells transiently expressing hGPR68, antagonism of pH 5.5 stimulated cAMP, read-out: hGPR68 IC50.

T1 sequence (Q15743 whole entry): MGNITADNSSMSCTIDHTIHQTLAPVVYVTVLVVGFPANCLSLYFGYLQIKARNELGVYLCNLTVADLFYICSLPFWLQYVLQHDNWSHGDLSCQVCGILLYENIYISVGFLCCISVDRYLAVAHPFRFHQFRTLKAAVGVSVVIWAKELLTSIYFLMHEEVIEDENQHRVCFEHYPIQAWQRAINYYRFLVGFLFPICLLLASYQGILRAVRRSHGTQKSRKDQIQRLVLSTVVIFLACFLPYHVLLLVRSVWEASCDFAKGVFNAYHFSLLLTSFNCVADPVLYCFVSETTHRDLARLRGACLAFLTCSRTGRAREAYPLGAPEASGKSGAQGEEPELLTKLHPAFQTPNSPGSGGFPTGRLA

In general, IC50 refers to the concentration that gives 50% inhibition. As to `Cc1nn2c(C(=O)N[C@H]3C[C@@H](C#N)C3)ccnc2c1C(N)=O` [Compound 50, N7-(cis-3-cyanocyclobutyl)-2-methyl-pyrazolo[1,5-a]pyrimidine-3,7-dicarboxamide], the IC50 under setting [1] is 500 to 5000 nM.

Regarding `Cc1nn2c(C(=O)NC3Cc4ccc(Cc5ccccc5)cc4C3)ccnc2c1C(N)=O` (stereo not drawn) [Compound 51, N7-(5-benzylindan-2-yl)-2-methyl-pyrazolo[1,5-a]pyrimidine-3,7-dicarboxamide], the 50% inhibitory concentration (IC50) under setting [1] was in the range of 5000 to 50000 nM.

Consider `Cc1nn2c(C(=O)NC3Cc4ccncc4C3)ccnc2c1C(N)=O` (stereo not drawn) [Compound 52, N7-(6,7-dihydro-5H-cyclopenta[c]pyridin-6-yl)-2-methyl-pyrazolo[1,5-a]pyrimidine-3,7-dicarboxamide], for which, under setting [1], the IC50 lay within 5000 to 50000 nM.

Take `Cc1nn2c(C(=O)N[C@H]3C[C@@H](OC(F)(F)F)C3)ccnc2c1C(N)=O` [Compound 53, 2-methyl-N7-[cis-3-(trifluoromethoxy)cyclobutyl]pyrazolo[1,5-a]pyrimidine-3,7-dicarboxamide]: under setting [1], the concentration for half-maximal inhibition (IC50) was 50 to 500 nM.

For the compound `COCc1nc2c(C(=O)NC3CC(F)(F)C3)ccnn2c1C(N)=O` [Compound 54, N8-(3,3-difluorocyclobutyl)-2-(methoxymethyl)imidazo[1,2-b]pyridazine-3,8-dicarboxamide], under setting [1], the IC50 was under 50 nM.

With `COCc1nc2c(C(=O)N[C@H]3C[C@@H](OC(F)(F)F)C3)ccnn2c1C(N)=O` [Compound 55, 2-(methoxymethyl)-N8-[cis-3-(trifluoromethoxy)cyclobutyl]imidazo[1,2-b]pyridazine-3,8-dicarboxamide], the 50% inhibitory concentration (IC50) under setting [1] is 50 to 500 nM.

For `COCc1nc2c(C(=O)NC3Cc4ccccc4C3)ccnn2c1C(N)=O` [Compound 56, N8-indan-2-yl-2-(methoxymethyl)imidazo[1,2-b]pyridazine-3,8-dicarboxamide], under setting [1], the IC50 was under 50 nM.

Turning to `COCc1nn2c(C(=O)NC3Cc4ccccc4C3)ccnc2c1C(N)=O` [Compound 57, N7-indan-2-yl-2-(methoxymethyl)pyrazolo[1,5-a]pyrimidine-3,7-dicarboxamide], the half-maximal inhibitory concentration (IC50) under setting [1] is under 50 nM.

Consider `COCc1nn2c(C(=O)NC3CC(F)(F)C3)ccnc2c1C(N)=O` [Compound 58, N7-(3,3-difluorocyclobutyl)-2-(methoxymethyl)pyrazolo[1,5-a]pyrimidine-3,7-dicarboxamide], for which the IC50 under setting [1] is under 50 nM.

On to `COCc1nn2c(C(=O)Nc3ccc(C(F)(F)F)cn3)ccnc2c1C(N)=O` [Compound 59, 2-(methoxymethyl)-N7-[5-(trifluoromethyl)-2-pyridyl]pyrazolo[1,5-a]pyrimidine-3,7-dicarboxamide], for which the concentration for half-maximal inhibition (IC50) (hGPR68 IC50, HEK293T cells transiently expressing hGPR68, antagonism of pH 5.5 stimulated cAMP) was under 50 nM.

As for `COCc1nn2c(C(=O)NC3Cc4cccnc4C3)ccnc2c1C(N)=O` (stereo not drawn) [Compound 60, N7-(6,7-dihydro-5H-cyclopenta[b]pyridin-6-yl)-2-(methoxymethyl)pyrazolo[1,5-a]pyrimidine-3,7-dicarboxamide], the IC50 under setting [1] was under 50 nM.

Consider `COCc1nn2c(C(=O)N[C@H]3C[C@@H](OC(F)(F)F)C3)ccnc2c1C(N)=O` [Compound 61, 2-(methoxymethyl)-N7-[cis-3-(trifluoromethoxy)cyclobutyl]pyrazolo[1,5-a]pyrimidine-3,7-dicarboxamide], for which, under setting [1], the IC50 was under 50 nM.

For `COCc1nn2c(C(=O)Nc3ccc(CN(C)C)cc3)ccnc2c1C(N)=O` [Compound 62, N7-[4-[(dimethylamino)methyl]phenyl]-2-(methoxymethyl)pyrazolo[1,5-a]pyrimidine-3,7-dicarboxamide], the concentration for half-maximal inhibition (IC50) under setting [1] was 500 to 5000 nM.

As to `COCc1nn2c(C(=O)NCc3cnn(C)c3)ccnc2c1C(N)=O` [Compound 63, 2-(methoxymethyl)-N7-[(1-methylpyrazol-4-yl)methyl]pyrazolo[1,5-a]pyrimidine-3,7-dicarboxamide], under setting [1], the concentration for half-maximal inhibition (IC50) was in the range of 500 to 5000 nM.

Take `COCc1nn2c(C(=O)Nc3cc(C)cc(C)n3)ccnc2c1C(N)=O` [Compound 64, N7-(4,6-dimethyl-2-pyridyl)-2-(methoxymethyl)pyrazolo[1,5-a]pyrimidine-3,7-dicarboxamide]: under setting [1], the IC50 is under 50 nM.

For `COCc1nn2c(C(=O)Nc3cc(C(F)(F)F)ccn3)ccnc2c1C(N)=O` [Compound 65, 2-(Methoxymethyl)-N7-[4-(trifluoromethyl)-2-pyridyl]pyrazolo[1,5-a]pyrimidine-3,7-dicarboxamide], the IC50 under setting [1] was 50 to 500 nM.

As for `COCc1nn2c(C(=O)Nc3ccc(F)c(F)c3)ccnc2c1C(N)=O` [Compound 66, N7-(3,4-difluorophenyl)-2-(methoxymethyl)pyrazolo[1,5-a]pyrimidine-3,7-dicarboxamide], the IC50 under setting [1] was under 50 nM.

As for `COCc1nn2c(C(=O)NCc3ccc4c(c3)CCO4)ccnc2c1C(N)=O` [Compound 67, N7-(2,3-dihydrobenzofuran-5-ylmethyl)-2-(methoxymethyl)pyrazolo[1,5-a]pyrimidine-3,7-dicarboxamide], the 50% inhibitory concentration (IC50) under setting [1] is 50 to 500 nM.

In the case of `COCc1nn2c(C(=O)Nc3ccc(F)cc3F)ccnc2c1C(N)=O` [Compound 68, N7-(2,4-difluorophenyl)-2-(methoxymethyl)pyrazolo[1,5-a]pyrimidine-3,7-dicarboxamide], under setting [1], the IC50 is under 50 nM.

On to `COCc1nn2c(C(=O)NCc3ccccc3)ccnc2c1C(N)=O` [Compound 69, N7-benzyl-2-(methoxymethyl)pyrazolo[1,5-a]pyrimidine-3,7-dicarboxamide], for which the 50% inhibitory concentration (IC50) under setting [1] was in the range of 50 to 500 nM.

On to `COCc1nn2c(C(=O)NCc3ccc(F)cc3)ccnc2c1C(N)=O` [Compound 70, N7-[(4-fluorophenyl)methyl]-2-(methoxymethyl)pyrazolo[1,5-a]pyrimidine-3,7-dicarboxamide], for which the IC50 under setting [1] is under 50 nM.

With `COCc1nn2c(C(=O)NCc3cccc(F)c3)ccnc2c1C(N)=O` [Compound 71, N7-[(3-fluorophenyl)methyl]-2-(methoxymethyl)pyrazolo[1,5-a]pyrimidine-3,7-dicarboxamide], the IC50 under setting [1] lay in the range of 50 to 500 nM.

With `COCc1nn2c(C(=O)NCc3ccc(C)cc3)ccnc2c1C(N)=O` [Compound 72, 2-(methoxymethyl)-N7-(p-tolylmethyl)pyrazolo[1,5-a]pyrimidine-3,7-dicarboxamide], the IC50 under setting [1] is under 50 nM.

On to `COCc1nn2c(C(=O)NC3CCc4ccc(OC)cc4C3)ccnc2c1C(N)=O` (stereo not drawn) [Compound 73, 2-(methoxymethyl)-N7-(7-methoxytetralin-2-yl)pyrazolo[1,5-a]pyrimidine-3,7-dicarboxamide], for which, under setting [1], the IC50 is under 50 nM.

`COCc1nn2c(C(=O)N[C@@H]3CCCc4ccccc43)ccnc2c1C(N)=O` [Compound 74, 2-(methoxymethyl)-N7-[(1R)-tetralin-1-yl]pyrazolo[1,5-a]pyrimidine-3,7-dicarboxamide]: the IC50 under setting [1] was under 50 nM.

As for `COCc1nn2c(C(=O)NC3COc4ccccc43)ccnc2c1C(N)=O` (stereo not drawn) [Compound 75, N7-(2,3-dihydrobenzofuran-3-yl)-2-(methoxymethyl)pyrazolo[1,5-a]pyrimidine-3,7-dicarboxamide], the concentration for half-maximal inhibition (IC50) under setting [1] was under 50 nM.

As for `COCc1nn2c(C(=O)NC3CCCCC3)ccnc2c1C(N)=O` [Compound 76, N7-cyclohexyl-2-(methoxymethyl)pyrazolo[1,5-a]pyrimidine-3,7-dicarboxamide], under setting [1], the concentration for half-maximal inhibition (IC50) was in the range of 50 to 500 nM.

These data come from US20260308159A1, “BICYCLIC HETEROARYLAMIDES HAVING GPR68 MODULATING ACTIVITY” (RECURSION PHARMACEUTICALS, INC., priority 2023, published 2026).
